The record followed here is US6376649B1, “Methods for the synthesis of α- hydroxy-β-amino acid and amide derivatives” (Corvas International, Inc., priority 1998, dated 2002).

The target in the test is thrombin (Homo sapiens, UniProt P00734). The test can be described thus: standard in vitro assays of thrombin inhibitory activity and selectivity. Particulars: standard in vitro assays designed to measure inhibitory activity and selectivity toward thrombin versus other proteases. It is filed as biochemical.

As to “BnSO2-7Lac—G—R(.TFA)(CO))—Gly—OEt [16-5]”, the thrombin inhibitory activity result is recorded as “thrombin inhibitory activity”.
